Measurements taken from ChEMBL document CHEMBL2073979, “Molecular cloning and characterization of a new multispecific organic anion transporter from rat brain” (J Biol Chem, 1999).

How the values were obtained:
[1] = biological target: T1, Organic anion transporter 3 (Rattus norvegicus, UniProt Q9R1U7); assay: TP_TRANSPORTER: inhibition of E1S uptake (E1S: 40 uM, DIDS: 1000 uM) in Xenopus laevis oocytes; assay type: functional, cell-based; conditions: oocyte
T1 sequence (Q9R1U7 whole entry): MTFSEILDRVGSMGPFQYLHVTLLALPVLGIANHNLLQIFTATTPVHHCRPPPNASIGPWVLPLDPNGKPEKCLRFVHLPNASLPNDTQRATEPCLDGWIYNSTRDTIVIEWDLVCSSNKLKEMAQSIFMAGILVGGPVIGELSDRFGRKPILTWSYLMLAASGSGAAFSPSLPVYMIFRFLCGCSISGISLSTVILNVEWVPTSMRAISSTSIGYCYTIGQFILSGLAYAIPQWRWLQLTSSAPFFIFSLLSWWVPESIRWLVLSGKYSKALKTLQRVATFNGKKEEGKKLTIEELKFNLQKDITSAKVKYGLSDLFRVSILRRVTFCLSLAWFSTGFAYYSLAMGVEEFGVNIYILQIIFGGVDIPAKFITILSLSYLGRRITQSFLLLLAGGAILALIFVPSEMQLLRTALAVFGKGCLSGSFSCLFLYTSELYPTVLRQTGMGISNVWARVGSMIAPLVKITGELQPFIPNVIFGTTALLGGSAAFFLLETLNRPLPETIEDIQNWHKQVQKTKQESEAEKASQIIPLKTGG

[2] = biological target: T2, Organic anion transporter 3 (OAT3) (Rattus norvegicus, UniProt Q9R1U7); assay: (§1) TP_TRANSPORTER: uptake in Xenopus laevis oocytes; assay type: functional, cell-based, Oocyte
T2 sequence (Q9R1U7 whole entry): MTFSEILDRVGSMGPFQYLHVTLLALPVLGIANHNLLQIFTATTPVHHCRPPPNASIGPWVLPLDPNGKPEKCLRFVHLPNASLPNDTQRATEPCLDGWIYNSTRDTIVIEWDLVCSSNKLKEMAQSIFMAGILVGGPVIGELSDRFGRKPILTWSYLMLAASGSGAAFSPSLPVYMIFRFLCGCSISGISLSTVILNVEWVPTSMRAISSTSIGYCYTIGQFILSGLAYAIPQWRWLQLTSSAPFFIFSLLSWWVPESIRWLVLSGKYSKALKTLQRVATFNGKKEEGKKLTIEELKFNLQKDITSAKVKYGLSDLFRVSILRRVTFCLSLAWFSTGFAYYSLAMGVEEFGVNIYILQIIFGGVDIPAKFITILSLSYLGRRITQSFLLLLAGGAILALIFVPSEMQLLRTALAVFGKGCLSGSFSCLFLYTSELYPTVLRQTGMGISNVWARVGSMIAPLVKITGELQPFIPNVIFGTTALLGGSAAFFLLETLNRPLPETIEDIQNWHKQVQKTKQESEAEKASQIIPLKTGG

[3] = biological target: T1, Organic anion transporter 3; assay: TP_TRANSPORTER: inhibition of E1S uptake (E1S: 40 uM, Bumetanide: 1000 uM) in Xenopus laevis oocytes; assay type: functional, cell-based; conditions: oocyte
[4] = biological target: T1, Organic anion transporter 3; assay: TP_TRANSPORTER: inhibition of E1S uptake (E1S: 40 uM, Cefoperazone: 1000 uM) in Xenopus laevis oocytes; assay type: functional, cell-based; conditions: oocyte
[5] = biological target: T1, Organic anion transporter 3; assay: as §1; assay type: functional, cell-based, Oocyte; conditions: oocyte
[6] = biological target: T1, Organic anion transporter 3; assay: TP_TRANSPORTER: inhibition of E1S uptake (E1S: 40 uM, Furosemide: 1000 uM) in Xenopus laevis oocytes; assay type: functional, cell-based; conditions: oocyte
[7] = biological target: T1, Organic anion transporter 3; assay: TP_TRANSPORTER: inhibition of E1S uptake (E1S: 40 uM, ICG: 1000 uM) in Xenopus laevis oocytes; assay type: functional, cell-based; conditions: oocyte
[8] = biological target: T1, Organic anion transporter 3; assay: TP_TRANSPORTER: inhibition of E1S uptake (E1S: 40 uM, Indomethacin: 1000 uM) in Xenopus laevis oocytes; assay type: functional, cell-based; conditions: oocyte
[9] = biological target: T1, Organic anion transporter 3; assay: TP_TRANSPORTER: inhibition of E1S uptake (E1S: 40 uM, Malatonin: 1000 uM) in Xenopus laevis oocytes; assay type: functional, cell-based; conditions: oocyte
[10] = biological target: T1, Organic anion transporter 3; assay: TP_TRANSPORTER: inhibition of E1S uptake (E1S: 40 uM, MTX: 1000 uM) in Xenopus laevis oocytes; assay type: functional, cell-based; conditions: oocyte
[11] = biological target: T1, Organic anion transporter 3; assay: TP_TRANSPORTER: inhibition of E1S uptake (E1S: 40 uM, Ouabain: 1000 uM) in Xenopus laevis oocytes; assay type: functional, cell-based; conditions: oocyte
[12] = biological target: T1, Organic anion transporter 3; assay: TP_TRANSPORTER: inhibition of E1S uptake (E1S: 40 uM, Piroxicam: 1000 uM) in Xenopus laevis oocytes; assay type: functional, cell-based; conditions: oocyte
[13] = biological target: T1, Organic anion transporter 3; assay: TP_TRANSPORTER: inhibition of E1S uptake (E1S: 40 uM, Probenecid: 1000 uM) in Xenopus laevis oocytes; assay type: functional, cell-based; conditions: oocyte
[14] = biological target: T1, Organic anion transporter 3; assay: TP_TRANSPORTER: inhibition of E1S uptake (E1S: 40 uM, BSP: 1000 uM) in Xenopus laevis oocytes; assay type: functional, cell-based; conditions: oocyte
[15] = biological target: T1, Organic anion transporter 3; assay: TP_TRANSPORTER: inhibition of E1S uptake (E1S: 40 uM, AZT: 1000 uM) in Xenopus laevis oocytes; assay type: functional, cell-based; conditions: oocyte
[16] = substrate: C[C@]12CC[C@@H]3c4ccc(OS(=O)(=O)O)cc4CC[C@H]3[C@@H]1CCC2=O; assay: as §1; assay type: functional, cell-based, Oocyte
[17] = substrate: Nc1ccc(C(=O)NCC(=O)O)cc1; assay: as §1; assay type: functional, cell-based, Oocyte

O=S(=O)(O)c1cc(N=C=S)ccc1/C=C/c1ccc(NC=S)cc1S(=O)(=O)O
Activity [1]: inhibitor [(at a rough estimate) 10 % of control]

C[C@@H]1Cc2c(Cl)cc(C(=O)N[C@@H](Cc3ccccc3)C(=O)O)c(O)c2C(=O)O1 [3R14S-OCHRATOXIN A]
Km [2]: 0.739 µM

CCCCNc1cc(C(=O)O)cc(S(N)(=O)=O)c1Oc1ccccc1 [BUMETANIDE]
Activity [3]: inhibitor [(at a rough estimate) 20 % of control]

CCN1CCN(C(=O)N[C@@H](C(=O)N[C@@H]2C(=O)N3C(C(=O)O)=C(CSc4nnnn4C)CS[C@H]23)c2ccc(O)cc2)C(=O)C1=O [CEFOPERAZONE]
Activity [4]: inhibitor [(at a rough estimate) 40 % of control]

CN/C(=N/CCSCc1nc[nH]c1C)NC#N [CIMETIDINE]
Activity [5]: substrate [+]

NS(=O)(=O)c1cc(C(=O)O)c(NCc2ccco2)cc1Cl [FUROSEMIDE]
Activity [6]: inhibitor [(at a rough estimate) 10 % of control]

CC1(C)C(/C=C/C=C/C=C/C=C2/N(CCCCS(=O)(=O)[O-])c3ccc4ccccc4c3C2(C)C)=[N+](CCCCS(=O)(=O)[O-])c2ccc3ccccc3c21.[Na+] [INDOCYANINE GREEN]
Activity [7]: inhibitor [(at a rough estimate) 20 % of control]

COc1ccc2c(c1)c(CC(=O)O)c(C)n2C(=O)c1ccc(Cl)cc1 [INDOMETHACIN]
Activity [8]: is not an inhibitor [-]

COc1ccc2[nH]cc(CCNC(C)=O)c2c1 [MELATONIN]
Activity [9]: inhibitor [(at a rough estimate) 10 % of control]

CN(Cc1cnc2nc(N)nc(N)c2n1)c1ccc(C(=O)N[C@@H](CCC(=O)O)C(=O)O)cc1 [METHOTREXATE]
Activity [10]: inhibitor [(at a rough estimate) 35 % of control]

C[C@@H]1O[C@@H](O[C@H]2C[C@@H](O)[C@]3(CO)[C@H]4[C@H](O)C[C@]5(C)[C@@H](C6=CC(=O)OC6)CC[C@]5(O)[C@@H]4CC[C@]3(O)C2)[C@H](O)[C@H](O)[C@H]1O [OUABAIN]
Activity [11]: is not an inhibitor [-]

CN1C(C(=O)Nc2ccccn2)=C(O)c2ccccc2S1(=O)=O [PIROXICAM]
Activity [12]: inhibitor [(at a rough estimate) 10 % of control]

CCCN(CCC)S(=O)(=O)c1ccc(C(=O)O)cc1 [PROBENECID]
Activity [13]: inhibitor [(at a rough estimate) 15 % of control]

O=C1OC(c2ccc(O)c(S(=O)(=O)[O-])c2)(c2ccc(O)c(S(=O)(=O)[O-])c2)c2c(Br)c(Br)c(Br)c(Br)c21.[Na+].[Na+] [SULFOBROMOPHTHALEIN SODIUM]
Activity [14]: inhibitor [(at a rough estimate) 5 % of control]

Cc1cn([C@H]2C[C@H](N=[N+]=[N-])[C@@H](CO)O2)c(=O)[nH]c1=O [ZIDOVUDINE]
Activity [15]: inhibitor [(at a rough estimate) 20 % of control]

B1: Organic anion transporter 3 (Rattus norvegicus) (protein)
chain: MTFSEILDRVGSMGPFQYLHVTLLALPVLGIANHNLLQIFTATTPVHHCRPPPNASIGPWVLPLDPNGKPEKCLRFVHLPNASLPNDTQRATEPCLDGWIYNSTRDTIVIEWDLVCSSNKLKEMAQSIFMAGILVGGPVIGELSDRFGRKPILTWSYLMLAASGSGAAFSPSLPVYMIFRFLCGCSISGISLSTVILNVEWVPTSMRAISSTSIGYCYTIGQFILSGLAYAIPQWRWLQLTSSAPFFIFSLLSWWVPESIRWLVLSGKYSKALKTLQRVATFNGKKEEGKKLTIEELKFNLQKDITSAKVKYGLSDLFRVSILRRVTFCLSLAWFSTGFAYYSLAMGVEEFGVNIYILQIIFGGVDIPAKFITILSLSYLGRRITQSFLLLLAGGAILALIFVPSEMQLLRTALAVFGKGCLSGSFSCLFLYTSELYPTVLRQTGMGISNVWARVGSMIAPLVKITGELQPFIPNVIFGTTALLGGSAAFFLLETLNRPLPETIEDIQNWHKQVQKTKQESEAEKASQIIPLKTGG
Km [16]: 2.34 µM
Km [17]: 64.7 µM
